This is an account of results in patent US6838592B1, “Methods for the identification of compounds for the treatment of alzheimer's disease” (Nathan S. Kline Institute for Psychiatric Research, priority 1999, dated 2005).

The target of one test is T1, Cat D (Mus musculus, UniProt P18242).
T1 construct: from tissue; host or cells: mouse brain (sections and hemi-brain homogenates)
The experiment in a line: Cat D activity in brains of PS1M146L/APPswe transgenic mice infused with protease inhibitor. Format: in vivo. The note with it: 2 mg/mL pepstatin or 10 mg/mL leupeptin, vs untreated. As for the experimental part: To administer the candidate compounds in the presence or absence of inhibitor(s), eight week old mice are anesthetized with pentobarbital (40-50 mg/kg i.p.) and placed in a stereotaxic apparatus with mouse adapter (David Kopf Instruments, Tujunga, Calif.). After sacrifice, placement of the probe into the lateral ventricle is confirmed and one hemi-brain immersion-fixed and the other hemi-brain homogenized for protease assays. We determine the efficacy of the candidate compound by assaying the activity of proteases in brain homogenates (e.g., Cat B, Cat L, Cat D, and trypsin (Brunk et al., Free Radic. Biol. Med. 19:813-822, 1995; Marotta and Nixon, J. Neurochem. 43:507-516, 1984; Koshikawa et al., Am. J. Pathol. 153:937-944, 1998); see, for example, Cat D shown in FIG. 11F). […] Lipofuscin granules are defined at the EM level as having a single layer of membrane and a bipartite structure consisting of electron lucent lipoid material and electron dense material (Cataldo and Nixon, Ann. N.Y. Acad. Sci. 679: 87-109, 1993).
We also performed protease inhibitor infusion experiments in PS1M146L/APPswe transgenic mice. […] Animals were sacrificed at 12 weeks of age, and total Aβ levels were determined by ELISA following formic acid extraction (FIG. 10A). […] We have additionally measured the activity of Cat D in the brains of untreated, pepstatin-treated, or leupeptin-treated mice (FIG. 10B).

In another test the test system is Aβ. The experiment in a line: Total Aβ by ELISA after formic acid extraction in PS1M146L/APPswe transgenic mice infused with protease inhibitor. Format: in vivo. Particulars: infusion from 8 to 12 weeks of age. As for the experimental part:
We also performed protease inhibitor infusion experiments in PS1M146L/APPswe transgenic mice. Infusion pumps containing either 2 mg/mL pepstatin or 10 mg/mL leupeptin were implanted into PS1M146L/APPswe transgenic mice at 8 weeks of age. Animals were sacrificed at 12 weeks of age, and total Aβ levels were determined by ELISA following formic acid extraction (FIG. 10A). […] Leupeptin treatment, on the other hand, increased total Aβ by 1.8 times when compared to untreated mice. We have additionally measured the activity of Cat D in the brains of untreated, pepstatin-treated, or leupeptin-treated mice (FIG. 10B).
The Aβ sandwich ELISA is generally known to those skilled in the art, with both Aβ ELISA kits (Biosource International, Camavillo, Calif.) and appropriate antibodies (e.g., 4G8, GE10; Seneteck, PLC, Napa, Calif.) available commercially. For the Aβ sandwich ELISA, Nunc-Immuno Plates (Nunc A/S Roskilde, Denmark) were coated overnight at […] using antibodies specific for Aβ40 or Aβ42 in 100 mM bicarbonate buffer, pH 9.6. […] Aβ was detected by incubating for 4 hours at room temperature with an HPR-conjugated anti-Aβ antibody in 20 mM Na phosphate, 2 mM EDTA, 400 mM NaCl, 1.0% BSA. ELISA plates were developed using a color reaction (ABTS Peroxidase Substrate System, Kirkegaard & Perry, Gaithersburg, Md.) and the OD450 read.
On the technique in general: In an ELISA, binding on a coated surface is turned into a signal by an enzyme label.

Test [1] relates to lipofuscin-like material in neurons. The note with it: chronic inhibition (7+days) by infusion; cited from earlier work.
In another test the test system is lipofuscin. The experiment in a line: Lipofuscin autofluorescence in fixed brain tissue after intraventricular leupeptin infusion. Particulars: 5 mg/mL leupeptin, four weeks, vs vehicle (20 mM HEPES). Type of test: in vivo, mice.
The test system of another test is cortical mantle. In words: Nissl staining and cortical mantle thickness in PS1M146L/APPswe transgenic and non-transgenic mice infused with leupeptin. Type of test: in vivo. As for the experimental part: (§1) Several studies have recently raised the possibility that abnormal forms of tau is metabolized in lysosomes. […] There are numerous assays for tau known in the art. For example, the processing of tau by immunocytochemistry and Western blot analysis is performed using an antibody that recognizes both phosphorylated and non-phosphorylated forms (Adamec et al., Brain Res. 757:93-101, 1997). Abnormal tau conformation and hyperphosphorylated tau is examined using suitable monoclonal antibodies. (e.g., MC1 (Jicha et al., J. Neurosci. Res. 48:128-132) and AT8 (Innogenetics, Gent, Belgium)). EM analysis can be performed to characterize cytoskeletal changes in neurons (Nixon, Bioessays 20:798-807, 1998). Alternatively, the magnitude of neurodegeneration in the mice can be determined by Nissl stain.
As a second example of the usefulness of inducing lysosomal system dysfunction by protease inhibitor infusion, we treated PS1M146L/APPswe transgenic mice, an established model of AD-like pathology (Duff et al., Nature 383:710-713, 1996). Infusion pumps containing 5 mg/mL leupeptin were implanted into PS1M146L/APPswe transgenic mice at 1 year of age. Animals were sacrificed 4 weeks later.
We confirmed this observation by measuring the thickness of the cortical mantle in these mice (FIG. 15). […] One current limitation of the existing mouse models of AD is their failure to show substantial neuronal atrophy and/or neuronal cell loss, key features of the disease in humans.

A further test concerns tau. The experiment in a line: Western blot analysis of tau in brain of leupeptin-infused mice. Format: in vivo. As for the experimental part:
as §1
In general terms: A western blot detects proteins with antibodies after separation by electrophoresis.

“Also recorded” adds a separate entry of the source. Non-standard residues stand in square brackets, D forms with d. Residues, ends and D or L forms follow the SMILES beside them. *: point of attachment. Sta = CC(C)C[C@H](N)[C@@H](O)CC(=O)O; Isovaleryl = CC(C)CC(=O)*

T1 sequence (P18242 65-410): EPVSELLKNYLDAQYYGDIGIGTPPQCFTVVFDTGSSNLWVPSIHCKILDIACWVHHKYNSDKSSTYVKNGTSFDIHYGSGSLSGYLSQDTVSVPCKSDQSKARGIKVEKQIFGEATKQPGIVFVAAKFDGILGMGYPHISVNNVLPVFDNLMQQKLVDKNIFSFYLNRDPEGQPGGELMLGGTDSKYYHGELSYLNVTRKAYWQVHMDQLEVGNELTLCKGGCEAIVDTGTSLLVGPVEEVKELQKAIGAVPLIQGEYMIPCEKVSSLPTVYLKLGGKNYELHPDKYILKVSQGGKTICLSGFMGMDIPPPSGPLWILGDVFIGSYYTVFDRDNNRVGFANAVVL

For `CC(C)CC(=O)N[C@H](C(=O)N[C@H](C(=O)N[C@@H](CC(C)C)[C@@H](O)CC(=O)N[C@@H](C)C(=O)N[C@@H](CC(C)C)[C@@H](O)CC(=O)O)C(C)C)C(C)C` [pepstatin] (Isovaleryl-VV[Sta]A[Sta]-OH), the “activity of Cat D in the brain” value on Cat D is “reduced activity of Cat D”. In addition, in the test on Aβ (2 mg/mL pepstatin), the “total Aβ level relative to untreated mice” value is “reduced to half the level”.

For `CCN(CC)CCCC(C)Nc1ccnc2cc(Cl)ccc12` (stereo not drawn) [chloroquine], the “accumulation of lipofuscin-like material in neurons” value (“accumulation” for short) in test [1] is recorded as “results in accumulation of lipofuscin-like material in neurons”.

`CC(=O)N[C@@H](CC(C)C)C(=O)N[C@@H](CC(C)C)C(=O)N[C@H](C=O)CCCNC(=N)N` [leupeptin]: the lipofuscin autofluorescence entry with lipofuscin was “increase in lipofuscin autofluorescence; also recorded: lipotuscin autofluorescence in sections of leupeptin-treated but not vehicle-treated brains”. In addition, the “reduction of thickness of the cortex” value in the test on cortical mantle (PS1M146L/APPswe mouse, 5 mg/mL leupeptin, 4 weeks) is “over 20%”. Moreover, the “Nissl staining of cortex” value in the test with cortical mantle (PSM146L/APPswe mouse, 5 mg/mL leupeptin, 4 weeks, vs non-transgenic littermate also infused with leupeptin) was “substantial cortical neuronal hypotrophy, chromatolysis and possibly loss of neurons”. In the test on cortical mantle (non-transgenic mouse, leupeptin vs vehicle), the “thickness of the cortical mantle” value was “small decrease”. In addition, on Cat D, the “activity of Cat D in the brain” value is given as “increased Cat D activity”. The “total Aβ increase compared to untreated mice” value in the test on Aβ (10 mg/mL leupeptin) amounted to 1.8 times. Further, the “accumulation” value in test [1] is reported as “results in accumulation of lipofuscin-like material in neurons”. Moreover, in the test with tau, the “lower molecular weight forms of tau (Mr~30-34 kDa) by Western blot” value is given as “increase in the lower molecular weight forms of tau”.

As to aprotinin, in test [1], the “accumulation” value is given as “does not”.
